For this test, the system named is Human recombinant GST-PI3K. In words: PI3K induced-lipid phosphorylation scintillation proximity assay (neomycin-coated SPA beads). It counts as biochemical. The following applies: amount necessary to achieve 50% inhibition of PI3K; 120 min at room temperature. From the text: The efficacy of compounds of the invention in inhibiting the PI3K induced-lipid phosphorylation may be tested in the following binding assay. The assay combines the scintillation proximity assay technology (SPA, Amersham) with the capacity of neomycin (a polycationic antibiotic) to bind phospholipids with high affinity and specificity. The Scintillation Proximity Assay is based on the properties of weakly emitting isotopes (such as ^3H, ^125I, ^33P). Coating SPA beads with neomycin allows the detection of phosphorylated lipid substrates after incubation with recombinant PI3K and radioactive ATP in the same well, by capturing the radioactive phospholipids to the SPA beads through their specific binding to neomycin. To a 96 wells MTP containing 10 μl of the test compound of Formula (I) (solubilized in 10% DMSO; to yield a concentration of 100, 25, 5.0, 1.25, 0.312, 0.078, 0.0195, 0.00488, 0.00122 and 0.0003 μM of the test compound), the following assay components are added: 1) 10 μL of lipid micelles 2) […] of Kinase buffer ([^33P]γATP162 μM/300 nCi, MgCl2 2.5 mM, DTT 2.5 mM, Na3VO4 25 μM in Hepes 40 mM, pH 7.4) and 3) 10 μL (100 ng) of Human recombinant GST-PI3K (in Hepes 40 mM, pH 7.4, ethylenglycol 4%). After incubation at room temperature for 120 minutes, with gentle agitation, the reaction is stopped by addition of 200 μL of a solution containing 250 μg of neomycin-coated PVT SPA beads, ATP 60 mM and EDTA 6.2 mM in PBS. The assay is further incubated at room temperature for 60 minutes with gentle agitation to allow binding of phospholipids to neomycin-SPA beads. After precipitation of the neomycin-coated PVT SPA beads for 5 minutes at 1500×g, radioactive PtdIns(3)P is quantified by scintillation counting in a Wallac MicroBeta™ plate counter. The values indicated in Table I below refer to the IC50 (μM) with respect to PI3K, i.e. the amount necessary to achieve 50% inhibition of said target. Said values show a considerable inhibitory potency of pyridopyrimidine compounds with regard to PI3K.
In general terms: SPA uses beads or plates that emit light when radiolabelled molecules are held near them.

One may read the IC50 as the concentration at which inhibition is half-maximal. For `COc1cccc(-c2nc(N3CCOCC3)nc3c(Cl)cc(C(=O)O)nc23)c1` [Example 1, 8-Chloro-4-(3-methoxyphenyl)-2-morpholin-4-ylpyrido[3,2-d]pyrimidine-6-carboxylic acid], the IC50 is 1080 nM. The result for `COc1cccc(-c2nc(N3CCOCC3)nc3ccc(C(=O)O)nc23)c1` [Example 2, 4-(3-Methoxyphenyl)-2-morpholin-4-ylpyrido[3,2-d]pyrimidine-6-carboxylic acid] reads 4490 nM; that for `COCCN(C)c1cc(C(=O)O)nc2c(-c3ccc(O)cc3)nc(N3CCOCC3)nc12` [Example 3, 4-(4-hydroxy-phenyl)-8-[(2-methoxy-ethyl)-methyl-amino]-2-morpholin-4-yl-pyrido[3,2-d]pyrimidine-6-carboxylic acid], 290 nM; that for `CN(C)c1cc(C(=O)O)nc2c(-c3ccc(O)cc3)nc(N3CCOCC3)nc12` [Example 4, 8-Dimethylamino-4-(4-hydroxy-phenyl)-2-morpholin-4-yl-pyrido[3,2-d]pyrimidine-6-carboxylic acid], 350 nM. With `COCCNc1cc(C(=O)O)nc2c(-c3ccc(O)cc3)nc(N3CCOCC3)nc12` [Example 5, 4-(4-Hydroxy-phenyl)-8-(2-methoxy-ethylamino)-2-morpholin-4-yl-pyrido[3,2-d]pyrimidine-6-carboxylic acid], the IC50 was 504 nM. In the case of `COCCOc1cc(C(=O)O)nc2c(-c3ccc(O)cc3)nc(N3CCOCC3)nc12` [Example 6, 4-(4-Hydroxy-phenyl)-8-(2-methoxy-ethoxy)-2-morpholin-4-yl-pyrido[3,2-d]pyrimidine-6-carboxylic acid], the IC50 was found to be 2520 nM. As for `O=C(O)c1cc(NCCO)c2nc(N3CCOCC3)nc(-c3ccc(O)cc3)c2n1` [Example 7, 8-(2-Hydroxy-ethylamino)-4-(4-hydroxy-phenyl)-2-morpholin-4-yl-pyrido[3,2-d]pyrimidine-6-carboxylic acid], the IC50 stood at 732 nM. `O=C(O)c1ccc2nc(N3CCOCC3)nc(-c3ccc(O)cc3)c2n1` [Example 8, 4-(4-Hydroxy-phenyl)-2-morpholin-4-yl-pyrido[3,2-d]pyrimidine-6-carboxylic acid]: the IC50 is 855 nM.

Take `O=C(O)c1cc(Cl)c2nc(N3CCOCC3)nc(-c3cccc(O)c3)c2n1` [Example 9, 8-Chloro-4-(3-hydroxyphenyl)-2-morpholin-4-ylpyrido[3,2-d]pyrimidine-6-carboxylic acid]: the half-maximal inhibitory concentration (IC50) is 108 nM. For the molecule `COCCN(C)c1cc(C(=O)O)nc2c(-c3cccc(O)c3)nc(N3CCOCC3)nc12` [Example 10, 4-(3-Hydroxy-phenyl)-8-[(2-methoxy-ethyl)-methyl-amino]-2-morpholin-4-yl-pyrido[3,2-d]pyrimidine-6-carboxylic acid], the IC50 turned out to be 28 nM.

As for `COCCOc1cc(C(=O)O)nc2c(-c3cccc(O)c3)nc(N3CCOCC3)nc12` [Example 11, 4-(3-Hydroxy-phenyl)-8-(2-methoxy-ethoxy)-2-morpholin-4-yl-pyrido[3,2-d]pyrimidine-6-carboxylic acid], the IC50 stood at 255 nM. With `O=C(O)c1cc(NCCO)c2nc(N3CCOCC3)nc(-c3cccc(O)c3)c2n1` [Example 12, 8-(2-Hydroxy-ethylamino)-4-(3-hydroxy-phenyl)-2-morpholin-4-yl-pyrido[3,2-d]pyrimidine-6-carboxylic acid], the IC50 was 75 nM. For the molecule `COc1ccccc1-c1cc(C(=O)O)nc2c(-c3cccc(O)c3)nc(N3CCOCC3)nc12` [Example 13, 4-(3-hydroxyphenyl)-8-(2-methoxyphenyl)-2-morpholin-4-ylpyrido[3,2-d]pyrimidine-6-carboxylic acid], the IC50 was 24 nM. For `COCCN(C)c1cc(C(=O)O)nc2c(-c3cc(O)cc(F)c3)nc(N3CCOCC3)nc12` [Example 14, 4-(3-Fluoro-5-hydroxy-phenyl)-8-[(2-methoxy-ethyl)-methyl-amino]-2-morpholin-4-yl-pyrido[3,2-d]pyrimidine-6-carboxylic acid] the value was 19 nM; for `COCCOc1cc(C(=O)O)nc2c(-c3cc(O)cc(F)c3)nc(N3CCOCC3)nc12` [Example 15, 4-(3-Fluoro-5-hydroxy-phenyl)-8-(2-methoxy-ethoxy)-2-morpholin-4-yl-pyrido[3,2-d]pyrimidine-6-carboxylic acid], 93 nM; for `O=C(O)c1cc(NCCO)c2nc(N3CCOCC3)nc(-c3cc(O)cc(F)c3)c2n1` [Example 16, 4-(3-Fluoro-5-hydroxy-phenyl)-8-(2-hydroxy-ethylamino)-2-morpholin-4-yl-pyrido[3,2-d]pyrimidine-6-carboxylic acid], 64 nM. For `CN(C)c1cc(C(=O)O)nc2c(-c3cccc4[nH]ccc34)nc(N3CCOCC3)nc12` [Example 17, 8-Dimethylamino-4-(1H-indol-4-yl)-2-morpholin-4-yl-pyrido[3,2-d]pyrimidine-6-carboxylic acid] the value was 132 nM; for `CNc1cc(C(=O)O)nc2c(-c3cccc4[nH]ccc34)nc(N3CCOCC3)nc12` [Example 18, 4-(1 H-Indol-4-yl)-8-methylamino-2-morpholin-4-yl-pyrido[3,2-d]pyrimidine-6-carboxylic acid], 780 nM. As for `COCCNc1cc(C(=O)O)nc2c(-c3cccc4[nH]ccc34)nc(N3CCOCC3)nc12` [Example 19, 4-(1H-Indol-4-yl)-8-(2-methoxy-ethylamino)-2-morpholin-4-yl-pyrido[3,2-d]pyrimidine-6-carboxylic acid], the half-inhibitory concentration (IC50) was 128 nM. With `CN(CCO)c1cc(C(=O)O)nc2c(-c3cccc4[nH]ccc34)nc(N3CCOCC3)nc12` [Example 20, 8-[(2-Hydroxy-ethyl)-methyl-amino]-4-(1H-indol-4-yl)-2-morpholin-4-yl-pyrido[3,2-d]pyrimidine-6-carboxylic acid], the IC50 is 77 nM.

As to `COCCN(C)c1cc(C(=O)O)nc2c(-c3ccc4[nH]ccc4c3)nc(N3CCOCC3)nc12` [Example 21, 4-(1H-Indol-5-yl)-8-[(2-methoxy-ethyl)-methyl-amino]-2-morpholin-4-yl-pyrido[3,2-d]pyrimidine-6-carboxylic acid], the IC50 was determined as 169 nM. Turning to `COCCN(C)c1cc(C(=O)O)nc2c(-c3ccc(CO)cc3)nc(N3CCOCC3)nc12` [Example 22, 4-(4-Hydroxymethyl-phenyl)-8-[(2-methoxy-ethyl)-methyl-amino]-2-morpholin-4-yl-pyrido[3,2-d]pyrimidine-6-carboxylic acid], the IC50 is 546 nM.

Consider `CN(C)c1cc(C(=O)O)nc2c(-c3cccc(CO)c3)nc(N3CCOCC3)nc12` [Example 23, 8-Dimethylamino-4-(3-hydroxymethyl-phenyl)-2-morpholin-4-yl-pyrido[3,2-d]pyrimidine-6-carboxylic acid], for which the IC50 is 34 nM.

For `CN(CCO)c1cc(C(=O)O)nc2c(-c3cccc(CO)c3)nc(N3CCOCC3)nc12` [Example 24, 8-[(2-Hydroxy-ethyl)-methyl-amino]-4-(3-hydroxymethyl-phenyl)-2-morpholin-4-yl-pyrido[3,2-d]pyrimidine-6-carboxylic acid], the IC50 was found to be 74 nM. For the molecule `COCc1cccc(-c2nc(N3CCOCC3)nc3c(N(C)C)cc(C(=O)O)nc23)c1` [Example 25, 8-Dimethylamino-4-(3-methoxymethyl-phenyl)-2-morpholin-4-yl-pyrido[3,2-d]pyrimidine-6-carboxylic acid], the IC50 came to 5050 nM.

Values taken from patent US8609666B2, “2-morpholino-pyrido[3,2-D]pyrimidines” (Merck Serono SA, priority 2009, dated 2013).
